Publication PMC9658984, “Acetylation Enhances the Anticancer Activity and Oral Bioavailability of 5-Demethyltangeretin” (International Journal of Molecular Sciences, 2022)

Columns and labels:
[1] = tested on: PC-3 human prostate cancer cells; test: MTT cell viability assay; type: cell-based; settings: PC-3 cells, 48 h
Protocol: PC-3 human prostate cancer cell line was obtained from the Bioresource Collection and Research Center (Hsinchu, Taiwan) and maintained in RPMI medium with 10% FBS and 1% penicillin-streptomycin (PS). The cells were incubated in a 5% CO2 humidified atmosphere at 37 °C. TAN, 5-DTAN, and 5-ATAN were dissolved in DMSO to prepare a 20 mM sample stock, and the final ratio of the DMSO in the treatment medium was 0.1%.
(§1) PC-3 cells were seeded in 96-well plates at a density of 2.5 × 10^3 cells/well and allowed to attach for 24 h. The medium was changed to serum-free RPMI supplemented with 0–20 μM TAN, 5-DTAN, or 5-ATAN, and then incubated for an additional 48 h. The cell viability was determined by the MTT assay and represented as a percentage of the growth of the DMSO-treated cells. FACScan flow cytometer (Becton Dickinson, San Jose, CA, USA) was used to analyze the cell cycle distribution as previously mentioned. Briefly, PC-3 cells treated with various concentrations of 5-DTAN or 5-ATAN for 48 h were trypsinized and gently fixed in 70% ice-cold ethanol and stored at −20 °C for at least 24 h. Then, the cells were washed with cold phosphate-buffered saline (PBS), followed by incubation with 40 μg/mL PI, 0.1 mg/mL RNase A, and 0.1% TritonX-100 in the dark for 30 min at room temperature. Subsequently, the cell cycle distribution of the PI-stained cells was analyzed by a FACScan flow cytometer, and the results were analyzed and calculated using ModFit LT Ver. 3.0 software. The proportion of the sub-G1 phase was quantitated and represented as the apoptotic ratio. Furthermore, a QIAamp DNA mini kit was used to extract DNA from the PC-3 cells treated with 5-DTAN or 5-ATAN for 48 h. Then, the extracted DNA was loaded on a 2% agarose gel containing HealthView^TM Nucleic Acid Stain (Genomics, New Taipei, Taiwan) for electrophoresis at 50 V. The gel was visualized under UV light, and the DNA fragmentation pattern was photographed.

[2] = Tissue distribution of 5-DTAN after 7 days oral dosing; type: in vivo; settings: 50 mg/kg i.g., 7 consecutive days, C57BL/6J mice; except kidney and lung
Protocol: Basically, esterase in the cytosol and plasma rapidly converts 5-ATAN absorbed into cells or into the blood circulation to 5-DTAN by deacetylation. The 5-DTAN in 5-DTAN-treated and 5-ATAN-treated samples can be determined by the HPLC-electrochemical detection (ECD) method. PC-3 cells were seeded in 10 cm dishes (1 × 10^6 cells) and allowed to attach for 24 h. Subsequently, cells were treated with various concentrations of 5-DTAN or 5-ATAN for 12 h, or with 15 µM of 5-DTAN or 5-ATAN for different time periods. Then, the cells were washed with cold PBS, collected, and centrifuged at 300× g for 5 min to remove the supernatant. […] The cytosolic levels of 5-DTAN in the resulting supernatant were analyzed by HPLC with an Ascentis RP-Amide column (L × I.D. 15 cm × 4.6 mm, 3 μm) (Merck KGaA, Darmstadt, Germany) as previously described. […] The samples were reconstituted in methanol and the levels of 5-DTAN were analyzed by HPLC-ECD. Pharmacokinetic parameters, including maximum concentration (Cmax), maximum time (Tmax), half-life (T1/2), and area under the curve (AUC), were calculated and obtained by the Thermo kinetica 5.0 software (Thermo Fisher Scientific, Waltham, MA, USA). […] The supernatant was obtained by centrifuging at 15,130× g for 15 min at 4 °C and then extracted with an equal volume of ethyl acetate and analyzed using the methods described above.

[3] = tested on: PC-3 cells; test: DNA fragmentation (agarose gel electrophoresis); type: cell-based, human; settings: 48 h
Protocol: as §1, with “Then, the extracted DNA was loaded on a 2% agarose gel containing HealthView^TM Nucleic Acid Stain (Genomics, New Taipei, Taiwan) for electrophoresis at 50 V. The gel was visualized under UV light, and the DNA fragmentation pattern was photographed.” left out

[4] = tested on: Cyclin B1; test: Western blot protein expression, Cyclin B1; type: cell-based, human; settings: PC-3 cells, 10 µM, time-dependent
Protocol: (§2) Western blot was performed to analyze the protein expression in the PC-3 Cells. The cells were exposed to indicated concentrations of 5-ATAN for various time periods at 37 °C. Then, they were washed with cold PBS and harvested, and a Western blot was conducted as previously described.

[5] = tested on: Bcl-xL; test: Western blot protein expression, Bcl-xL; type: cell-based, human; settings: PC-3 cells, 10 µM
Protocol: as §2

[6] = tested on: MMP-2; test: Western blot protein expression, MMP-2; type: cell-based, human; settings: PC-3 cells, 5 µM, only at 48 h
Protocol: as §2

[7] = tested on: MMP-9; test: Western blot protein expression, MMP-9; type: cell-based, human; settings: PC-3 cells, 5 µM, effect enhanced with treatment time
Protocol: as §2

[8] = tested on: Cdc2; test: Western blot protein expression, Cdc2; type: cell-based, human; settings: PC-3 cells, 10 µM, only after 48 h
Protocol: as §2

[9] = tested on: caspase-3; test: Caspase-3 activity by flow cytometry (CaspGLOW staining); type: cell-based, human; settings: PC-3 cells, 48 h
Protocol: The PC-3 cells were treated with the indicated concentration of 5-DTAN or 5-ATAN for 48 h, and then cells were collected and stained by a CaspGLOW^TM Fluorescein Active Caspase-3 Staining Kit (Thermo Fisher Scientific, MA, USA) or 3,3′-dihexyloxacarbocyanine iodide (DiOC6, Merck Millipore, Burlington, MA, USA) for caspase-3 activity and mitochondria membrane potential analysis, respectively. The percentages of caspase-3-activated or DiOC6-positive cells were measured using a flow cytometer and calculated by the CellQuest Pro software.

Compound: COc1ccc(-c2cc(=O)c3c(OC(C)=O)c(OC)c(OC)c(OC)c3o2)cc1 [5-ATAN, 5-acetyloxy-6,7,8,4′-tetramethoxyflavone]
- IC50 ([1]; Homo sapiens, MTT): 5.1 µM
- IC50 fold lower than that of 5-DTAN [1]: 2.3 fold
- IC50 fold lower than that of TAN [1]: 3.4 fold
- Levels of 5-DTAN in most tissues vs 5-DTAN-treated mice [2]: significantly higher
- Concentration at which DNA ladders were observed [3]: higher than 5 μM
- Expression of Cyclin B1 [4]: dramatically down-regulated
- Expression of Bcl-xL [5]: marked decrease
- Expression of MMP-2 [6]: obviously inhibited
- Expression of MMP-9 [7]: significantly inhibited
- Expression of Cdc-2 [8]: reduced
- Percentage of caspase-3 activity ([9]; 2.5 μM): 7.2 ± 0.6%
- Percentage of caspase-3 activity ([9]; 5 μM): 9.1 ± 1.7%
- Percentage of caspase-3 activity ([9]; 10 μM): 18.8 ± 02.4%
